Experimental data: article PMC7008064 (Drug Design, Development and Therapy, 2020)

Legend:
[1] = tested on: colorectal adenocarcinoma (HT-29) cell line; test: cells; format: cell-based; details: for IC50: Homo sapiens, HT-29, 48 h, read-out: IC50 HT-29
HDAC1 = HDAC1 (Homo sapiens, UniProt Q13547); test: HDAC1 inhibitory activity; format: biochemical
HDAC2 = HDAC2 (Homo sapiens, UniProt Q92769); test: HDAC2 inhibitory activity; format: biochemical
[2] = tested on: neuroblastoma (SH-SY5Y) cell line; test: cells; format: cell-based; details: for IC50: Homo sapiens, SH-SY5Y, 48 h, read-out: IC50 SH-SY5Y
[3] = HDAC1 IC50 (as printed in docking Table 3), unrounded values repeated in Table 3
[4] = IC50 HDAC1, mean ± S.E. of three independent experiments
[5] = HDAC2 IC50 (as printed in docking Table 4), unrounded values repeated in Table 4
[6] = IC50 HDAC2, mean ± S.E. of three independent experiments
[7] = ratio of IC50 values vs Gefitinib

Chain of HDAC2 (Q92769 whole entry): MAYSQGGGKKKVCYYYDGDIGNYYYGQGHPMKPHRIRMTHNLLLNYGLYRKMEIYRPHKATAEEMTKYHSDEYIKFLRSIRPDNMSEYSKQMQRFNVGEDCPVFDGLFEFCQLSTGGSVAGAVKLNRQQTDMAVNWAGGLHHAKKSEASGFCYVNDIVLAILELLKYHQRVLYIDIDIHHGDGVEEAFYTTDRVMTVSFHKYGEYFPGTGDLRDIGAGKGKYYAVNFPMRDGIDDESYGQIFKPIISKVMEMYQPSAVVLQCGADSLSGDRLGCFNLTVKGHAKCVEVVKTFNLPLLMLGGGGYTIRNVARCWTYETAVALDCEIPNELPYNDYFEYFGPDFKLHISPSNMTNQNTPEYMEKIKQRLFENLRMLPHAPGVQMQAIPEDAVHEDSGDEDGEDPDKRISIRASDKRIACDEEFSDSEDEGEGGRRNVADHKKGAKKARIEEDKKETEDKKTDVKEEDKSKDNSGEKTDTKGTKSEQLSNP
Chain of HDAC1 (Q13547 whole entry): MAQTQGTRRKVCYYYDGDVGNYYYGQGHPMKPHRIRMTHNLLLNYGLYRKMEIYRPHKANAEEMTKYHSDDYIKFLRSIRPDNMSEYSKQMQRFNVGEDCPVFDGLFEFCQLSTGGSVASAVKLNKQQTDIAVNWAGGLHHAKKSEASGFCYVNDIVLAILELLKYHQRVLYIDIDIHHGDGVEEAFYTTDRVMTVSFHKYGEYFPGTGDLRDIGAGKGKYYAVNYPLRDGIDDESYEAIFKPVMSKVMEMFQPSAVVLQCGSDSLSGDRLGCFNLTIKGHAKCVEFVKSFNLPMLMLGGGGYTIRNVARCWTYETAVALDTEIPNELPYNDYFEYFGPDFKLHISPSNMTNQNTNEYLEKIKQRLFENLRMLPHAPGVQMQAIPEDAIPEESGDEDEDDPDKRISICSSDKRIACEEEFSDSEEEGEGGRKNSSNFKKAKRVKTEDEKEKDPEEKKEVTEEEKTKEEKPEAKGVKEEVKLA

## Cc1nc(C)c(C(=O)Nc2ccc(C(=O)NN)cc2)nc1C [Compound 7a, N-(4-(Hydrazinecarbonyl)phenyl)-3,5,6-Trimethylpyrazine-2-Carboxamide]
[1]
  IC50: 15100 ± 430 nM
HDAC1; [3]
  IC50: 114 nM
HDAC1; [4]
  IC50: 114.3 ± 0.44 nM
HDAC2; [5]
  IC50: 53.7 nM
HDAC2; [6]
  IC50: 53.7 ± 0.05 nM
[2]
  IC50: 1600 ± 40 nM
[2]; [7]
  fold enhanced efficiency than reference drug Gefitinib against SH-SY5Y cells: 4.7 fold

## Cc1nc(C)c(C(=O)Nc2ccc(CC(=O)NO)cc2)nc1C [Compound 7b, N-(4-(2-(Hydroxyamino)-2-Oxoethyl)phenyl)-3,5,6-Trimethylpyrazine-2-Carboxamide]
[1]
  IC50: 4570 ± 130 nM
HDAC1; [3]
  IC50: 2430 nM
HDAC1; [4]
  IC50: 2434.7 ± 1.25 nM
HDAC2; [5]
  IC50: 132 nM
HDAC2; [6]
  IC50: 132.3 ± 0.12 nM
[2]
  IC50: 67000 ± 1910 nM

## Cc1nc(C)c(C(=O)Nc2ccc(CC(=O)NN)cc2)nc1C [Compound 7c, N-(4-(2-Hydrazinyl-2-Oxoethyl)phenyl)-3,5,6-Trimethylpyrazine-2-Carboxamide]
[1]
  IC50: 6110 ± 170 nM
HDAC1; [3]
  IC50: 264 nM
HDAC1; [4]
  IC50: 263.5 ± 1.27 nM
HDAC2; [5]
  IC50: 205 nM
HDAC2; [6]
  IC50: 205.4 ± 0.43 nM
[2]
  IC50: 43400 ± 1210 nM

## Cc1nc(C)c(C(=O)Nc2cccc(C(=O)NO)c2)nc1C [Compound 8a, N-(3-(Hydroxycarbamoyl)phenyl)-3,5,6-Trimethylpyrazine-2-Carboxamide]
[1]
  IC50: 1960 ± 50 nM
[1]; [7]
  times more potent than Gefitinib toward HT-29 cells: 2.5 times
HDAC1; [3]
  IC50: 468 nM
HDAC2; [5]
  IC50: 169 nM
HDAC2; [6]
  IC50: 168.8 ± 0.13 nM
[2]
  IC50: 4270 ± 120 nM

## Cc1nc(C)c(C(=O)Nc2cccc(C(=O)NN)c2)nc1C [Compound 8b, N-(3-(Hydrazinecarbonyl)phenyl)-3,5,6-Trimethylpyrazine-2-Carboxamide]
[1]
  IC50: 3250 ± 90 nM
HDAC1; 8b relative to 7a
  fold worsening of effectiveness against HDAC1 on shifting hydrazide ZBG from para (7a) to meta (8b): 15.7 fold
HDAC1; [3]
  IC50: 1800 nM
HDAC1; [4]
  IC50: 1800.1 ± 0.45 nM
HDAC2; [5]
  IC50: 113 nM
HDAC2; [6]
  IC50: 112.9 ± 0.09 nM
[2]
  IC50: 28500 ± 800 nM
